Patent US11034648B2, “Cystobactamide derivatives” (priority 2017, dated 2021)
Converted amounts (≈) assume the structure as drawn.

Tests used:
Format in all cases: cell-based
E. coli WT DSM-1116 = test: MIC, microbroth dilution susceptibility assay; details: Escherichia coli, DSM1116; small panel, Tables 1a/1b; no visual growth after approx. 16 h; read-out: MIC E. coli WT DSM-1116
Method: (§1) Cystobactamid derivatives synthesized were tested against relevant Gram negative and positive bacteria of clinical interest. Experimental procedures used for the biological characterization of the compounds are the same as previously described in WO 2016/082934.
(§2) Bacterial strains used in susceptibility assays (minimum inhibitory concentration, MIC) were either part of our internal strain collection or purchased from the German Collection of Microorganisms and Cell Cultures (Deutsche Sammlung von Mikroorganismen und Zellkulturen, DSMZ) and the American Type Culture Collection (ATCC). The susceptible E. coli strain (WT) and fluoroquinolone-resistant mutants E. coli WT-3 and WT-III were kindly provided by Prof Dr. P. Heisig, Pharmaceutical Biology and Microbiology, University of Hamburg, Germany. The efflux-deficient strain P. aeruginosa ΔmexAB was kindly provided by Prof Dr. S. Häußler, Institute for Molecular Bacteriology, TWINCORE, Hannover, Germany. All compounds were prepared as DMSO stocks and MIC values were determined in standard microbroth dilution assays in 96-well MTPs as described in Baumann et al., Angew Chem Int Ed Engl. 2014; 53(52):14605-9. In brief, overnight cultures of bacteria were diluted in either tryptic soy broth (TSB: 1.7% peptone casein, 0.3% peptone soymeal, 0.25% glucose, 0.5% NaCl, 0.25% K2HPO4; pH 7.3; S. pneumoniae and E. faecalis) or cation-adjusted Müller-Hinton Broth (BBL™, BD; all other bacteria) and adjusted to 10^4-10^6 cfu/mL. Bacteria were grown in the presence of the derivatives in serial dilution for approx. 16 h at 30-37° C. MIC values were determined and were defined as the antibiotic concentration at which no visual growth of bacteria was observed.

S. aureus Newman = test: MIC, microbroth dilution susceptibility assay; details: Staphylococcus aureus, NEWMAN; small panel, Tables 1a/1b; read-out: MIC S. aureus Newman
Method: as §1, §2

P. aeruginosa WT PA14 = test: MIC, microbroth dilution susceptibility assay; details: Pseudomonas aeruginosa, PA14, small panel, Tables 1a/1b; read-out: MIC P. aeruginosa WT PA14
Method: as §1, §2

P. aeruginosa ΔmexAB = test: microbe, parasite or virus in culture; details: Pseudomonas aeruginosa, 16 h, read-out: MIC P. aeruginosa ΔmexAB, efflux-deficient strain; small panel, Tables 1a/1b
Method: as §1, §2

E. coli ΔtolC = test: microbe, parasite or virus in culture; details: Escherichia coli, 16 h, read-out: MIC E. coli ΔtolC, small panel, Tables 1a/1b; no visual growth after approx. 16 h
Method: as §1, §2

SMILES | MIC (E. coli WT DSM-1116) [µg/mL] | MIC (S. aureus Newman) [µg/mL] | MIC (P. aeruginosa WT PA14) [µg/mL] | MIC (P. aeruginosa ΔmexAB) [µg/mL] | MIC (E. coli ΔtolC) [µg/mL]
CC(C)Oc1c(NC(=O)c2ccc(NC(=O)[C@H](CC(N)=O)NC(=O)c3ccc(NC(=O)c4ccc(S(C)(=O)=O)cc4)cc3)cc2)ccc(C(=O)Nc2ccc(C(=O)O)cc2)c1O [Compound 56, (S)-4-(4-(4-(4-amino-2-(4-(4-(methylsulfonyl)benzamido)benzamido)-4-oxobutanamido)benzamido)-2-hydroxy-3-isopropoxybenzamido)benzoic acid] | 2 (≈ 2.31 µM) | > 64 | > 64 | > 64 | < 0.03
CC(C)Oc1c(NC(=O)c2ccc(NC(=O)[C@H](CC(N)=O)NC(=O)c3ccc(NC(=O)c4ccc5c(c4)COC5=O)cc3)cc2)ccc(C(=O)Nc2ccc(C(=O)O)cc2)c1O [Compound 57, (S)-4-(4-(4-(4-amino-4-oxo-2-(4-(1-oxo-1,3-dihydroisobenzofuran-5-carboxamido)benzamido)butanamido)benzamido)-2-hydroxy-3-isopropoxybenzamido)benzoic acid] | < 0.03 | 1 (≈ 1.19 µM) | > 64 | 1 (≈ 1.19 µM) | < 0.03
C/C(=C\c1ccc(C#N)cc1)C(=O)Nc1ccc(C(=O)N[C@@H](CC(N)=O)C(=O)Nc2ccc(C(=O)Nc3ccc(C(=O)Nc4ccc(C(=O)O)cc4)c(O)c3OC(C)C)cc2)cc1 [Compound 58, (S,E)-4-(4-(4-(4-amino-2-(4-(3-(4-cyanophenyl)-2-methylacrylamido)benzamido)-4-oxobutanamido)benzamido)-2-hydroxy-3-isopropoxybenzamido)benzoic acid] | 0.125 (≈ 0.147 µM) | 0.06 (≈ 0.0704 µM) | 1 (≈ 1.17 µM) | 0.25 (≈ 0.293 µM) | < 0.03
CC(C)COc1c(NC(=O)c2ccc(NC(=O)[C@H](CC(N)=O)NC(=O)c3ccc(NC(=O)c4ccc([N+](=O)[O-])cc4)cc3)cc2)ccc(C(=O)Nc2ccc(C(=O)O)cc2)c1O [Compound 65, (S)-4-(4-(4-(4-amino-2-(4-(4-nitrobenzamido)benzamido)-4-oxobutanamido)benzamido)-2-hydroxy-3-isobutoxybenzamido)benzoic acid] | > 64 | 1 (≈ 1.18 µM) | > 64 | > 64 | > 64
CC(C)Oc1cc(C(=O)Nc2ccc(C(=O)O)cc2)ccc1NC(=O)c1ccc(NC(=O)[C@H](CC(N)=O)NC(=O)c2ccc(NC(=O)c3ccc([N+](=O)[O-])cc3)cc2)cc1 [Compound 69, (S)-4-(4-(4-(4-amino-2-(4-(4-nitrobenzamido)benzamido)-4-oxobutanamido)benzamido)-3-isopropoxybenzamido)benzoic acid] | > 64 | > 64 | > 64 | 1 (≈ 1.23 µM) | 0.06 (≈ 0.0735 µM)
CC(C)Oc1c(NC(=O)c2ccc(NC(=O)[C@H](CC(N)=O)NC(=O)c3ccc(NC(=O)c4ccc([N+](=O)[O-])cc4)cc3)cc2)ccc(C(=O)Nc2ccc(C(N)=O)cc2)c1O [Compound 78, (S)—N1-(4-((4-((4-carbamoylphenyl)carbamoyl)-3-hydroxy-2-isopropoxyphenyl)carbamoyl)phenyl)-2-(4-(4-nitrobenzamido)benzamido)succinamide] | 32 (≈ 38.5 µM) | 64 (≈ 77 µM) | > 64 | > 64 | ≤ 0.03
CC(C)Oc1c(NC(=O)c2ccc(NC(=O)[C@H](CC(N)=O)NC(=O)c3ccc(NC(=O)c4ccc(C#N)cc4)cc3)cc2)ccc(C(=O)Nc2ccn(C)c2)c1O [Compound 87, (S)-2-(4-(4-cyanobenzamido)benzamido)-N1-(4-((3-hydroxy-2-isopropoxy-4-((1-methyl-1H-pyrrol-3-yl)carbamoyl)phenyl)carbamoyl)phenyl)succinamide] | > 64 | > 64 | > 64 | > 64 | < 0.03
CC(C)Oc1c(NC(=O)c2ccc(NC(=O)[C@H](CC(N)=O)NC(=O)c3ccc(NC(=O)c4ccc(C#N)cc4)cc3)cc2)ccc(C(=O)Nc2cc(C(=O)O)n(C)c2)c1O [Compound 88, (S)-4-(4-(4-(4-amino-2-(4-(4-cyanobenzamido)benzamido)-4-oxobutanamido)benzamido)-2-hydroxy-3-isopropoxybenzamido)-1-methyl-1H-pyrrole-2-carboxylic acid] | 0.5 (≈ 0.614 µM) | 64 (≈ 78.5 µM) | > 64 | 8 (≈ 9.82 µM) | < 0.03
CC(C)Oc1c(NC(=O)c2ccc(NC(=O)[C@H](CC(N)=O)NC(=O)c3ccc(NC(=O)c4ccc(C#N)cc4)cc3)cc2)ccc(C(=O)NCc2ccc(C(=O)O)cc2)c1O [Compound 89, (S)-4-((4-(4-(4-amino-2-(4-(4-cyanobenzamido)benzamido)-4-oxobutanamido)benzamido)-2-hydroxy-3-isopropoxybenzamido)methyl)benzoic acid] | > 64 | > 64 | > 64 | > 64 | 0.25 (≈ 0.303 µM)
CC(C)Oc1c(NC(=O)c2ccc(NC(=O)[C@H](CC(N)=O)NC(=O)c3ccc(NC(=O)c4ccc(C#N)cc4)cc3)cc2)ccc(C(=O)Nc2cccc(C(=O)O)c2)c1O [Compound 90, (S)-3-(4-(4-(4-amino-2-(4-(4-cyanobenzamido)benzamido)-4-oxobutanamido)benzamido)-2-hydroxy-3-isopropoxybenzamido)benzoic acid] | 0.5 (≈ 0.616 µM) | 2 (≈ 2.46 µM) | > 64 | > 64 | 0.03 (≈ 0.037 µM)
CC(C)Oc1c(NC(=O)c2ccc(NC(=O)[C@H](CC(N)=O)NC(=O)c3ccc(NC(=O)c4ccc(C#N)cc4)cc3)cc2)ccc(C(=O)NC2CCNCC2)c1O [Compound 91, (S)-2-(4-(4-cyanobenzamido)benzamido)-N1-(4-((3-hydroxy-2-isopropoxy-4-(piperidin-4-ylcarbamoyl)phenyl)carbamoyl)phenyl)succinamide] | > 64 | > 64 | > 64 | > 64 | > 64
CC(C)Oc1c(NC(=O)c2ccc(NC(=O)[C@H](CC(N)=O)NC(=O)c3ccc(NC(=O)c4ccc(C#N)cc4)cc3)cc2)ccc(C(=O)Nc2ccc(S(=O)(=O)O)cc2)c1O [Compound 92, (S)-4-(4-(4-(4-amino-2-(4-(4-cyanobenzamido)benzamido)-4-oxobutanamido)benzamido)-2-hydroxy-3-isopropoxybenzamido)benzenesulfonic acid] | > 64 | > 64 | > 64 | > 64 | 0.25 (≈ 0.295 µM)
CC(C)Oc1c(NC(=O)c2ccc(NC(=O)[C@H](CC(N)=O)NC(=O)c3ccc(NC(=O)c4ccc(C#N)cc4)cc3)cc2)ccc(C(=O)N[C@@H]2CONC2=O)c1O [Compound 93, (S)-2-(4-(4-cyanobenzamido)benzamido)-N1-(4-((3-hydroxy-2-isopropoxy-4-(((R)-3-oxoisoxazolidin-4-yl)carbamoyl)phenyl)carbamoyl)phenyl)succinamide] | > 64 | > 64 | > 64 | > 64 | 0.5 (≈ 0.644 µM)
CC(C)Oc1c(NC(=O)c2ccc(NC(=O)[C@H](CC(N)=O)NC(=O)c3ccc(NC(=O)c4ccc(C#N)cc4)cc3)cc2)ccc(C(=O)Nc2ccncc2)c1O [Compound 94, (S)-2-(4-(4-cyanobenzamido)benzamido)-N1-(4-((3-hydroxy-2-isopropoxy-4-(pyridin-4-ylcarbamoyl)phenyl)carbamoyl)phenyl)succinamide] | > 64 | > 64 | > 64 | > 64 | 0.03 (≈ 0.039 µM)
C/C(=C/c1ccc(C#N)cc1)C(=O)Nc1ccc(C(=O)N[C@@H](CC(N)=O)C(=O)Nc2ccc(C(=O)Nc3ccc(C(=O)Nc4ccc(C(=O)O)cc4)c(O)c3OC(C)C)cc2)cc1 [Compound 122, (S,Z)-4-(4-(4-(4-amino-2-(4-(3-(4-cyanophenyl)-2-methylacrylamido)benzamido)-4-oxobutanamido)benzamido)-2-hydroxy-3-isopropoxybenzamido)benzoic acid] | 1 (≈ 1.17 µM) | 8 (≈ 9.39 µM) | > 64 | > 64 | 0.25 (≈ 0.293 µM)
CO[C@@H](C(N)=O)[C@H](NC(=O)c1ccc(NC(=O)/C(C)=C/c2ccc(C#N)cc2)cc1)C(=O)Nc1ccc(C(=O)Nc2ccc(C(=O)Nc3ccc(C(=O)O)cc3)c(O)c2OC(C)C)cc1 [Compound 123, 4-(4-(4-((2S,3R)-4-amino-2-(4-((E)-3-(4-cyanophenyl)-2-methylacrylamido)benzamido)-3-methoxy-4-oxobutanamido)benzamido)-2-hydroxy-3-isopropoxybenzamido)benzoic acid] | 1 (≈ 1.13 µM) | 4 (≈ 4.54 µM) | 8 (≈ 9.07 µM) | 2 (≈ 2.27 µM) | 0.5 (≈ 0.567 µM)
